Experimental data taken from patent US7456197B2, “Pyridinium cationic lipids as gene transfer agents” (The Texas A&M University System, priority 2003, dated 2008).
Entries after “also recorded” stand apart in the source; their conditions may differ.

Assays:
[1] = tested on: prostate carcinoma DU-145; assay: Luciferase (pGL3) transfection efficiency of lipoplexes, DU-145; format: cell-based; conditions: optimized lipoplexes, Chol 1:1, FIG. 7
Description: (§1) It is well known that specific cell types and cell lines may vary in their ability to be transfected. In addition to the NCI-H23 lung cancer cell line, we therefore tested our optimized formulation of 5AMyr/Chol 1:1 versus DOTAP/Chol 1:1 as reference on four other cell lines from tumors representing cancers of great importance to human health, as well as different tissues of origin: breast carcinomas MCF-7, MDA-Mb231, prostate carcinoma DU-145 and glioma SWB-95 (FIG. 7).
(§2) Dioleoylphosphatidylethanolamine (DOPE), cholesterol (CHOL), N-(2,3-dioleoyloxypropyl)-N,N,N-trimethylammonium chloride (DOTAP) were commercial products. The purity of the lipids was checked by thin layer chromatography and also by differential scanning calorimetry (DSC), which was also used for determining the critical temperature Tc. For the preparation of the liposomes a protocol optimized for this type of compounds was adopted as follows. The cationic lipid (with or without helper lipid) was dissolved in chloroform/methanol (2/1, v/v) to reach a final concentration of 1 mM for the charged species. […]
(§3) For the luciferase assay, 20 μL of cell lysate was aliquoted in a test tube and assessed directly using a luciferase assay kit from Promega by means of a luminometer.
(§4) The protein content was quantified using a bicinchoninic acid (BCA) assay. […]

[2] = tested on: breast carcinoma MCF-7; assay: Luciferase (pGL3) transfection efficiency of lipoplexes, MCF-7; format: cell-based; conditions: optimized lipoplexes, Chol 1:1, FIG. 7
Description: as §1, §2, §3, §4

[3] = Cationic liposome size by dynamic light scattering; format: physicochemical
Description: (§5) The three series of cationic lipids newly synthesized were assessed for their transfection efficiency in vitro, using the experimental conditions optimized in a previous study.^23 Essentially the cationic lipids were mixed with cholesterol at a 1:1 molar ratio, dissolved in chloroform/methanol and dried under vacuum to generate a lipid film. The dried lipid film was hydrated with sterile phosphate buffer isotonic saline with pH=7.4 (PBS) and sonicated to yield cationic liposomes. The resulting liposomal solution was allowed to react with a DNA solution to form the final cationic lipid-DNA complexes (lipoplexes), which were assessed for transfection efficiency using different cell cultures. We used a pGL3 plasmid (Promega, Madison, Wisc.), encoding a firefly luciferase gene under the control of the constitutively active SV40 promoter as the reporter for the transfection efficiency. An optimal^23 electrostatic charge ratio cationic lipid/DNA of 2:1 was used in all preparations. […] The ability of these new cationic lipids to generate relatively small cationic liposomes could be attributed to the relatively large curvature radius induced in the bilayer by the bulky pyridinium cationic head.
(§6) Dioleoylphosphatidylethanolamine (DOPE), cholesterol (CHOL), N-(2,3-dioleoyloxypropyl)-N,N,N-trimethylammonium chloride (DOTAP) were commercial products. The purity of the lipids was checked by thin layer chromatography and also by differential scanning calorimetry (DSC), which was also used for determining the critical temperature Tc. For the preparation of the liposomes a protocol optimized for this type of compounds was adopted as follows. The cationic lipid (with or without helper lipid) was dissolved in chloroform/methanol (2/1, v/v) to reach a final concentration of 1 mM for the charged species. From this stock solution 50 μL were aliquoted in a 1 mL tube and the solvent was evaporated in a SpeedVac evaporator, under vacuum, for 1 h. The dried lipid film was prepared by removing the traces of organic solvent in a dessicator, over Drierite®, under vacuum, overnight. The film was hydrated with 500 μL sterile phosphate buffer saline (PBS) the tube was purged with sterile N2, and vortexed for 1 minute. The liposomes were generated by sonicating the tube in a water bath sonicator for 5-30 minutes at 62° C. and at 37° C. for DOTAP. After sonication the preparations were allowed to reach room temperature.

[4] = tested on: lung cancer cell line NCI-H23; assay: Luciferase (pGL3) transfection efficiency of lipoplexes, NCI-H23; format: cell-based, human
Description: as §5, §6
For generating the lipoplexes, 1.4-2.8 μL plasmid DNA solution (0.5 μg/μL) was diluted with 100 μL Optimem®. A liposome solution was prepared separately by diluting the initial liposomal stock solution (0.1 mM in cationic lipid) with Optimem® in specified proportions, to reach a final volume of 50 μL. Over this liposome solution 50 μL of the DNA stock solution was added, the tube was incubated for 30 minutes at room temperature and then the content diluted with 500 μL Optimem® (final volume of the lipoplex stock solution: 600 μL).
The lipoplexes was tested for their transfection properties over five different cancer cell lines—breast carcinoma (MCF-7 and MDA-Mb231), lung carcinoma (NCI-H23), prostate carcinoma (DU-145) and brain carcinoma (SWB-95). The cells were maintained in 10% fetal bovine serum (FBS)—enriched RPMI 1640 at 37° C. and 5% CO2 in a humidified atmosphere. Twenty-four hours prior to transfection the cells were transferred in 96-wells microtiter plate at a density of 20,000 cells/well. Each well received 100 μL medium and the plate was incubated in the same conditions. All experiments were done in triplicate or quadruplicate.
Immediately before transfection the medium was removed from each well and the cells were briefly washed with 200 μL sterile PBS. After removal of the PBS each well received 100 μL lipoplex stock solution and the plate was placed in the incubator for 1 hour. Then, 100 μL medium was added to each well and the plate was incubated for 24 hours. […]

[5] = tested on: glioma SWB-95; assay: Luciferase (pGL3) transfection efficiency of lipoplexes, SWB-95; format: cell-based; conditions: optimized lipoplexes, Chol 1:1, FIG. 7
Description: as §1, §2, §3, §4

CCCCCCCCCCCCCC(=O)OCC(COC(=O)CCCCCCCCCCCCC)[n+]1c(C)cc(C)cc1C.F[P-](F)(F)(F)(F)F [Lipid 5AMyr, 1-(1,3-dimyristoyloxypropane-2-yl)-2,4,6-trimethylpyridinium hexafluorophosphate]
transfection efficiency (luciferase activity normalized for protein) [1]: 327 RLU/μg of protein
transfection efficiency (luciferase activity normalized for protein) [2]: 206000 RLU/μg of protein
average size of the cationic vesicles ([3]; cholesterol at 1:1 molar ratio to cationic lipid): 95 nm
average size of the cationic vesicles ([3]; molar ratio of cholesterol to lipid halved): 88 nm
transfection efficiency, counterion study ([4]; 5Myr/Chol 1:1, PBS, sonicated two sequences of 15 minutes, FIG. 5): surpassed DOTAP in transfection efficiency
expression of luciferase relative to DOTAP/Chol 1:1 ([4]; cholesterol 1:1): about twice more effective than DOTAP
transfection efficiency (in words) ([4]; cholesterol as helper lipid 1:1, charge ratio lipid/DNA 2:1): highest transfection peaks; also recorded: the most effective
transfection efficiency (luciferase activity normalized for protein) ([4]; optimized lipoplexes, Chol 1:1, FIG. 7 caption (from FIG. 4)): 576000 RLU/μg of protein
transfection efficiency (luciferase activity normalized for protein) [5]: 10934 RLU/μg of protein
